Measurements as given in patent US20080038809A1, “ISOLATED LECTIN POLYPEPTIDES CONSISTING OF TRUNCATED […] UDP-GalNAc:POLYPEPTIDE N- ACETYLGALACTOSAMINYLTRANSFERASES” (GLYCOZYM APS, priority 2002, published 2008).
“Also recorded” adds a separate entry of the source.

Assays:
[1] = test system: MUC5AC secretion, HT29MTX cells; assay: MUC5AC secretion from HT29MTX cells by SDS-PAGE Western blotting of media; assay type: cell-based, human; conditions: 5 mM, 14 days, LUM5-1 antibody
Method: FIG. 17 illustrates SDS-PAGE Western analysis of MUC5AC secretion from HT29MTX cells using polyclonal anti-MUC5AC antibody LUM5-1. In order to evaluate GalNAcβ-benzyl as an inhibitor of mucin glycosylation and secretion we used the HT-29 metotrexate (MTX) cultured colon carcinoma cells of mucin secreting phenotype. HT-29 MTX cells have a goblet cell like phenotype with constitutive production of MUC5AC. Cells were continuously grown up to 21 days in the presence of 5 mM GalNAcα-benzyl, 5 mM GalNAcβ-benzyl, 5 mM GlcNAcα-benzyl and without inhibitor. […] In striking contrast, MUC5AC was not detected in the media from cells treated with GalNAcα-benzyl (Lane 3) or GalNAcβ-benzyl (Lane 4). Results shown are from media collected at 14 days.
In order to evaluate GalNAcβ-benzyl as an inhibitor of mucin glycosylation and secretion we used the cultured colon carcinoma cells of mucin secreting phenotypes: HT-29 metotrexate (MTX) cells selected from the HT-29 cell line by culture in the presence of MTX (kind gift from G. Huet, France). The HT-29 MTX cells were selected to yield a goblet cell like phenotype with constitutive production of MUC5AC. In order to ensure proper goblet cell differentiation the HT29MTX cell line were continuously grown up to 21 days in the presence of 5 mM GalNAcα-benzyl, 5 mM GalNAcβ-benzyl, 5 mM GlcNAcα-benzyl and without inhibitor using culture conditions as described in Hennebicq-Reig et al. (Permanent exposure of mucin-secreting HT-29 cells to benzyl-N-acetyl-alpha-D-galactosaminide induces abnormal O-glycosylation of mucins and inhibits constitutive and stimulated MUC5AC secretion. Biochem J. 1998; 334:283-95). […] Furthermore the viscosity of the media from cells with and without inhibitor was evaluated using viscosity micro-measurement.

[2] = test system: MUC1 expression in CHO1d1D/MUC1F-clone2 cells; assay: MUC1 expression in cell lysates by immunoprecipitation, SDS-PAGE and western blot; assay type: cell-based, Chinese hamster (CHO 1d1D cells); human MUC1; conditions: 2 mM; for MUC1 expression: cells in GalNAc or Gal and GalNAc; for SDS-PAGE migration of MUC1 (O-glycan extension): cells in Gal and GalNAc
Method: FIG. 12 is an SDS-PAGE Western analysis of GalNAcα-benzyl inhibition of MUC1 expression in CHO 1d1D cells stably transfected with a full coding MUC1 construct. […] Cells were further treated with 2 mM GalNAcα-benzyl (lanes 1, 4, 7, 10), 2 mM GlcNAcα-benzyl (lanes 2, 5, 8, 11) or no inhibitor (lanes 3, 6, 9, 12). Cells were washed and lysed at 24 or 48 hours and the lysates subjected to immunoprecipitation with monoclonal antibody HMFG2, which broadly recognize MUC1 glycoforms. Immunoprecipitates were analysed by SDS-PAGE and western blot using HMFG2 antibody to detect MUC1 expression. Lane M indicates molecular markers with assigned mw. Lane C includes a control MUC1 180-mer tandem repeat peptide which has been GalNAc-glycosylated with 3 moles GalNAc per repeat using GalNAc-T2. The sharp bands migrating at 100-200 kd are immunoglobulins indicated by IgG.
FIG. 13 is a SDS-PAGE Western analysis resulting from the same experiment as in FIG. 12, but using a novel monoclonal antibody, 5E5, to visualize MUC1 expression. […] Cells were further treated with 2 mM GalNAcα-benzyl (lanes 1, 4), 2 mM GlcNAcα-benzyl (lanes 2, 5) or no inhibitor (lanes 3, 6). Cells were washed and lysed at 48 hours and the lysates subjected to immunoprecipitation with monoclonal antibody HMFG2, which broadly recognize MUC1 glycoforms. Immunoprecipitates were analysed by SDS-PAGE and western blot using 5E5 antibody, which selectively recognize GalNAc-glycosylated MUC1 expression and show no reactivity with unglycosylated MUC1 peptides. Lanes M and C as described in legend to FIG. 12.
Cells were further treated with 2 mM GalNAcα-benzyl (lanes 1, 4, 7, 10), 2 mM GalNAcβ-benzyl (lanes 2, 5, 8, 11) or 2 mM GlcNAcα-benzyl (lanes 3, 6, 9, 12). Cells were washed and lysed at 36 hours and the lysates subjected to immunoprecipitation with monoclonal antibodies HMFG2 (lanes 1-6) or 5E5 (lanes 7-12). Immunoprecipitates were analysed by SDS-PAGE and western blot using HMFG2 antibody. Lanes M and C as described in legend to FIG. 7.
FIG. 15 is an SDS-PAGE Western analysis resulting from the same experiment as FIG. 14, except that expression is visualized by the monoclonal antibody 5E5. […] Cells were further treated with 2 mM GalNAcα-benzyl (lanes 1, 4, 7, 10), 2 mM GalNAcβ-benzyl (lanes 2, 5, 8, 11) or 2 mM GlcNAcα-benzyl (lanes 3, 6, 9, 12). Cells were washed and lysed at 36 hours and the lysates subjected to immunoprecipitation with monoclonal antibodies HMFG2 (lanes 1-6) or 5E5 (lanes 7-12). Immunoprecipitates were analysed by SDS-PAGE and western blot using 5E5 antibody. Lanes M and C as described in legend to FIG. 12.
We therefore investigated the effect of treatment with GalNAcα-benzyl of CHO1d1D/MUC1F-clone2 cells grown in the presence of GalNAc. CHO1d1D/MUC1F-clone2 cells were seeded in 6 well plates at a density of 0.2×10^6 per well and were grown for 6 hours in Hams F12 medium with serum until approximately 30% subconfluent. […] After 18 hours, the medium was replaced with fresh Optimem containing the sugars and benzyl derivatives as above and grown for 12-48 hours. Initially we analyzed surface expression of MUC1 by immunocytology. Cells were washed once in PBS-CMF (phosphate buffered saline Calcium and Magnesium free) after carefully removing the medium from the wells and subsequently fixed in 2 ml 3% paraformaldehyde at 25° C. for 20 min followed by three washes with PBS-CMF 3 times. Free aldehyde groups were quenched by incubating in 2 mL 50 mM Ammonium Chloride in PBS-CMF for 10 min, followed by three washes with PBS-CMF and three washes with 5 min incubations each with PBS-CMF containing 0.2% Fish Skin Gelatin (Sigma). Immunostaining of cells was performed by incubation with monoclonal antibodies for 40 min at 25° C., followed by three washes with PBS-CMF and three washes of 5 min each with PBS-CMF containing 0.2% Fish Skin Gelatin. […]

[3] = 36 hours, 5E5 blot, cells grown in GalNAc

SMILES | MUC5AC in media [1] | reduction in MUC1 expression [2, 3] | MUC1 expression ([2]; 48 hours, 5E5 blot) | MUC1 expression ([2]; 48 hours, HMFG2 blot) | SDS-PAGE migration of MUC1 (O-glycan extension) ([2]; 48 hours) | reduction in MUC1 expression ([2]; 36 hours, HMFG2 blot) | SDS-PAGE migration of MUC1 (O-glycan extension) ([2]; 36 hours)
CC(=O)N[C@H]1[C@@H](OCc2ccccc2)O[C@H](CO)[C@H](O)[C@@H]1O [GalNAcα-benzyl, benzyl-N-acetyl-alpha-D-galactosaminide] | diminished secretion of MUC5AC | strong inhibition of MUC1 expression | significant reduction in MUC1 expression | significant reduction in MUC1 expression | marked shift in migration to lower molecular weight migrating species | – | –
CC(=O)N[C@H]1[C@H](OCc2ccccc2)O[C@H](CO)[C@H](O)[C@@H]1O [GalNAcβ-benzyl] | diminished secretion of MUC5AC | strong inhibition of MUC1 expression; also recorded: same or better reduction in MUC1 expression as treatment with GalNAcα-benzyl | – | – | – | same or better reduction in MUC1 expression as treatment with GalNAcα-benzyl | no change in the migration of MUC1
CC(=O)N[C@H]1[C@@H](OCc2ccccc2)O[C@H](CO)[C@@H](O)[C@@H]1O [GlcNAcα-benzyl] | detected MUC5AC in media | – | – | no effect on MUC1 expression and O-glycosylation compared to untreated cells | – | – | –
